Measurements as given in patent US20060276440A1, “Treatment of inflammatory disorders” (priority 2005, published 2006).
“Also recorded” adds a separate entry of the source.

Assays:
Type in all cases: cell-based, human
[1] = test system: OSM signaling; assay: […] 4A1 cell line (A549) OSM-stimulated luciferase reporter assay; settings: Homo sapiens, A549; 4A1 cell line; primary screen (Table 1); read-out: IC50, inhibition of OSM-stimulated (luciferase) reporter activity
Description: Cell line 4A1 was established in A549 cells (a human lung cancer cell line) using BV32, a vector that carries both the luciferase and GFP reporters. Assay development was performed to optimize the conditions of the OSM-response in the 4A1 […]® line.
Reporter activities of Sentinel® clones were measured using the Steady-Glo® Luciferase assay system (Promega, Madison, Wis.), according to the manufacturer's instructions, and were normalized to cell numbers based on nucleic acid quantification (CyQuant® cell proliferations assay, Molecular Probes/Invitrogen, Carlsbad, Calif.). In order to identify potential anti-inflammatory compounds, the OSM-responding Sentinel® clone 4A1 was used for a library screen of approximately 1800 compounds.

[2] = test system: MMP-2; assay: MMP-2 production in SW1353 cells (ELISA, control); settings: SW-1353; FIG. 5
Description: MMP-2 production can be used as control for the potential side-effects of compounds. This is because MMP-2 levels are not believed to change in response to IL-1/OSM.
(§1) The same supernatants of culture media used in the primary screen were assayed for IL-1/OSM-stimulated pro-MMP-13 production and MMP-2 production by enzyme-linked immunosorbent assay (ELISA).
(§2) For matrix metalloproteinase (MMP) measures, SW1353 cells were grown to confluence in 24 well plates, washed in DMEM (with Ham's F12) and placed in 500 ul of serum free DMEM/F-12 with 0.2% lactalbumin hydrosylate with and without OsM/IL-1. After 24 hrs, supernatants were collected and the amounts of proMMP13, totalMMP2, and proMMP1 were measured using Quantikine® ELISA kit for human MMPs (R & D systems, Minneapolis, Minn.). All MMP measures were normalized to viable cell numbers based on a tetrazolium (MTS) colorimetric measure (Promega, Madison, Wis.).
(§3) Multiple control assays were performed to investigate the selectivity of CA4 action. Matrix metalloproteinase-2 (MMP-2) production in SW1353 cells was tested. Mutation of MMP-2 causes a multicentric osteolysis and arthritis syndrome (Martignetti et al., Nat Genet 28, 261-265 (2001) the entire contents of which are incorporated herein by reference), and theoretically its expression should not be affected in treating RA. CA4 at approximately 110 nM had no effect on production of MMP-2 (FIG. 12E). An A549 Sentinel line that responded to TGF-β was then tested.

[3] = test system: MMP-13; assay: IL-1/OSM-stimulated pro-MMP-13 production in SW-1353 cells (ELISA); settings: Homo sapiens, SW1353; SW-1353; IL-1/OSM-stimulated; secondary screen (Example 2); read-out: IC50, inhibition of MMP-13 (pro-MMP-13) production
Excerpt: To test the compounds identified in the preliminary reporter (luciferase) activity […]® line 4A1 screen for inhibition of OSM signaling in a more physiologically relevant environment, a human cell line involved in an inflammatory disease was adapted. The human cartilage cell line SW-1353 was selected.
In the human cartilage cell line SW-1353, while IL-1 is believed to activate expression of collagenases to a small degree and OSM is believed to have no effect on collagenase expression, a combination of IL-1 and OSM is believed to lead to a synergistic activation of collagenases to much higher levels (S. Cowell et al., Biochem J 331 (Pt 2), 453 (Apr. 15, 1998). Regulation of MMP-13 in SW-1353 cells is, therefore, believed to provide a biomarker which can be used to monitor IL-1/OSM-mediated signal transduction events in secondary assays.
as §1, §2

[4] = test system: TGF-β; assay: A549 Sentinel line TGF-β-stimulated reporter activity; settings: inhibitor of TGF-β receptor, control
Description: as §3

| SMILES | IC50 [1] | inhibitory effect on MMP-13 expression compared to MMP-2 expression [2] | IC50 [3] | effect on TGF-β-induced reporter activity [4] |
| --- | --- | --- | --- | --- |
| CC(C)C1=CC2=CCC3[C@](C)(C(=O)O)CCC[C@@]3(C)[C@@H]2CC1 (stereo in doubt) [Abietic acid (2), abietic acid] | 12 nM | greater inhibitory effects on MMP-13 expression compared to MMP-2 expression; also recorded: preferentially inhibit MMP-13 expression compared to MMP-2 expression | 6 nM |  |
| C=C(C)[C@H]1CC[C@@]2(C(=O)O)CC[C@@]3(C)[C@@H](CC[C@H]4[C@]5(C)CC[C@@H](O)C(C)(C)[C@H]5CC[C@@]43C)[C@H]12 (stereo in doubt) [Betulinic acid (9), betulinic acid] | 3300 nM | greater inhibitory effects on MMP-13 expression compared to MMP-2 expression; also recorded: preferentially inhibit MMP-13 expression compared to MMP-2 expression | 600 nM |  |
| NC(=O)c1ccc(-c2nc(-c3ccc4c(c3)OCO4)c(-c3ccccn3)[nH]2)cc1 [SB431542, reference compound] |  |  |  | able to inhibit |
| CCc1oc2ccccc2c1C(=O)c1cc(Br)c(O)c(Br)c1 [Benzobromarone (8), (3,5-dibromo-4-hydroxyphenyl)(2-ethylbenzofuran-3-yl)methanone] | 2200 nM | greater inhibitory effects on MMP-13 expression compared to MMP-2 expression; also recorded: preferentially inhibit MMP-13 expression compared to MMP-2 expression | 400 nM |  |
